Source: article PMC5130197 (PLoS ONE, 2016)
Values joined by “and” are separate entries in the source; they are usually repeats but may differ in a detail not shown here. Identical values can stand only once. “Also recorded” adds a separate entry of the source. Counter-ions that a name gives are not always drawn. Like-named read-outs stand apart in the source and are kept apart here.

Assays:
[1] = tested on: EBOV/Mak (Ebola virus Makona variant); assay type: cell-based
[2] = tested on: EBOV/Kik (Ebola virus Kikwit variant); assay type: cell-based
[3] = tested on: EBOV/Kik (Ebola virus Kikwit variant); details: cited from earlier work
[4] = tested on: Vero E6, Hep G2, HeLa, Huh 7 cells
EBOV-eGFP [5] = assay type: cell-based, Ebola virus
Ebola virus disease = details: human, in vivo; cited from earlier work
EBOV-eGFP [6] = details: cited from earlier work
in vivo = details: Hartley, guinea pig, po, 60 mg/kg; for AUC(0-inf): AUCinf (h·ng/ml); for AUC(0-t): AUClast (h·ng/ml); for Cmax: Cmax (ng/ml)
[7] = both, Hartley, guinea pig, in vivo, po, 60 mg/kg

Structure (SMILES): CN(C)CCOc1ccc(/C(=C(/CCCl)c2ccccc2)c2ccccc2)cc1 [Toremifene, Toremifene citrate]
- antiviral activity against EBOV/Mak [1]: strong antiviral activity
- IC50 ([1]; read-out: IC50): 1.2 ± 0.1 µM
- IC50 ([1]; read-out: IC50s (range) in MDMs): 2.1 to 4.5 µM
- doses at which cytotoxicity increased (human MDMs): ≥ 10 µM
- IC50 ([2]; read-out: IC50s (range over cell lines)): 2.2 to 9.9 µM
- IC50 [3]: ~25 µM and 18.3 µM

Structure (SMILES): Cc1cn([C@H]2C[C@H](N=[N+]=[N-])[C@@H](CO)O2)c(=O)[nH]c1=O [Zidovudine]
- antiviral activity against EBOV/Mak [1]: did not show antiviral activity
- antiviral activity against EBOV/Mak infection in MDMs [1]: did not demonstrate any antiviral activity
- antiviral activity against EBOV/Kik [2]: no detectable antiviral activity
- IC50 ([2]; read-out: IC50): > 320 µM
- cytotoxicity [4]: minimal cytotoxicity
- anti-EBOV activity against EBOV-eGFP (EBOV-eGFP [5]): None of these compounds showed any anti-EBOV activity
- IC50 [3]: > 320 µM

Structure (SMILES): Nc1ccn([C@@H]2CS[C@H](CO)O2)c(=O)n1 [Lamivudine]
- patients successfully treated (Ebola virus disease): 13 out of 15
- IC25 (EBOV-eGFP [6]): 43.13 µM
- inhibition of viral replication (maximum) (EBOV-eGFP [6]): ≤ 45%
- anti-EBOV activity [1]: No significant anti-EBOV activity
- antiviral activity against EBOV/Mak [1]: did not show antiviral activity; also recorded: did not demonstrate any antiviral activity
- antiviral activity against EBOV/Mak infection in MDMs [1]: did not demonstrate any antiviral activity
- antiviral activity with extended drug pre-treatment [1]: did not improve
- viral inhibition (maximum achieved) ([1]; 320 µM): ≤ 30%
- IC50 ([1]; read-out: IC50): > 320 µM
- antiviral activity against EBOV/Kik [2]: no detectable antiviral activity
- IC50 ([2]; read-out: IC50): > 320 µM
- cytotoxicity [4]: minimal cytotoxicity
- Tmax (in vivo; both, time to reach peak plasma concentrations): ≤ 1 h
- AUC(0-inf) (in vivo; female): 12600 ng·h/mL
- AUC(0-t) (in vivo; female): 14600 ng·h/mL
- Cmax (in vivo; female): 4110 ng/mL
- Tmax (in vivo; female, Tmax (hr)): 1 h
- AUC(0-inf) (in vivo; male): 16800 ng·h/mL
- AUC(0-t) (in vivo; male): 15500 ng·h/mL
- Cmax (in vivo; male): 4560 ng/mL
- Tmax (in vivo; male, Tmax (hr)): 1 h
- AUCinf higher in male compared with female guinea pigs [7]: about 34%
- time of small second peak of plasma concentration [7]: 4 to 6 h
- anti-EBOV activity against EBOV-eGFP (EBOV-eGFP [5]): None of these compounds showed any anti-EBOV activity
- IC50 [3]: > 320 µM
